± gives the expanded uncertainty stated by the source.
Assay: wn = mass fraction of the nth substance listed
Details: 298 K, 100 kPa, Liquid, Alternating current cell with electrodes

electrical conductivity (w1 = 0.0105): 0.0194 ± 0.00039 S/m | electrical conductivity (w1 = 0.021): 0.0262 ± 0.00052 S/m | electrical conductivity (w1 = 0.0315): 0.0318 ± 0.00064 S/m | electrical conductivity (w1 = 0.0419): 0.0346 ± 0.00069 S/m | electrical conductivity (w1 = 0.0523): 0.0373 ± 0.00075 S/m
SMILES: OCCNCCO [diethanolamine] + O
